The values that follow come from US9156810B2, “Treatment of inflammatory bowel disease” (ALLERGAN, INC., priority 2003, dated 2015).

Assay [1] has as its target T1, hEP4 (Homo sapiens (Human), UniProt P35408). Briefly: Radioligand binding ([3H]PGE2), HEK-293 cell membranes expressing EP4 receptor. The conditions noted are these: top number in Table 2. The protocol: (§1) HEK-293 cells stably expressing the human or feline FP receptor, or EP1, EP2, EP3, or EP4 receptors were washed with TME buffer, scraped from the bottom of the flasks, and homogenized for 30 sec using a Brinkman PT 10/35 polytron. TME buffer was added to achieve a final 40 ml volume in the centrifuge tubes (the composition of TME is 100 mM TRIS base, 20 mM MgCl2, […]; 10N HCl is added to achieve a pH of 7.4).
(§2) The cell homogenate was centrifuged at 19000 r.p.m. for 20 min at 4° C. using a Beckman Ti-60 rotor. The resultant pellet was resuspended in TME buffer to give a final 1 mg/ml protein concentration, as determined by Biorad assay. Radioligand binding competition assays vs. [^3H-]17-phenyl PGF2α, (5 nM) were performed in a 100 μl volume for 60 min. Binding reactions were started by adding plasma membrane fraction. The reaction was terminated by the addition of 4 ml ice-cold TRIS-HCl buffer and rapid filtration through glass fiber GF/B filters using a Brandel cell harvester. The filters were washed 3 times with ice-cold buffer and oven dried for one hour. Non-specific binding was determined with 10 uM unlabeled 17-phenyl PGF2α.
(§3) [^3H-] PGE2 (5 nM; specific activity 180 Ci mmol) was used as the radioligand for EP receptors. Binding studies employing EP1, EP2, EP3, EP4 were performed in duplicate in at least three separate experiments. A 200 μl assay volume was used. Incubations were for 60 min at 25° C. and were terminated by the addition of 4 ml of ice-cold 50 mM TRIS-HCl, followed by rapid filtration through Whatman GF/B filters and three additional 4 ml washes in a cell harvester (Brandel). Non-specific binding determined with 10^−5M of unlabeled PGE2.

The target of assay [2] is T1, hEP4. Kind of assay: FLIPR calcium signal, HEK-293(EBNA) cells expressing hEP4/Gqs5. The class given is cell-based. Particulars: bottom number in Table 2, read-out: hEP4 functional EC50. The protocol: HEK-293(EBNA) cells, stably expressing one type or subtype of recombinant human prostaglandin receptors (prostaglandin receptors expressed: hDP/Gqs5; hEP1; hEP2/Gqs5; hEP3A/Gqi5; hEP4/Gqs5; hFP; hIP; hTP), were cultured in 100 mm culture dishes in high-glucose DMEM medium containing 10% fetal bovine serum, 2 mM 1-glutamine, 250 μg/ml geneticin (G418) and 200 μg/ml hygromycin B as selection markers, and 100 units/ml penicillin G, 100 μg/m streptomycin and 0.25 μg/m amphotericin B.
Cells were seeded at a density of 5×10^4 cells per well in Biocoat® Poly-D-lysine-coated black-wall, clear-bottom 96-well plates (Becton-Dickinson) and allowed to attach overnight in an incubator at 37° C. Cells were then washed two times with HBSS-HEPES buffer (Hanks Balanced Salt Solution without bicarbonate and phenol red, 20 mM HEPES, pH 7.4) using a Denley Cellwash plate washer (Labsystems). After 45 minutes of dye-loading in the dark, using the calcium-sensitive dye Fluo-4 AM at a final concentration of 2 μM, plates were washed four times with HBSS-HEPES buffer to remove excess dye leaving 100 μl in each well. Plates were re-equilibrated to 37° C. for a few minutes.
Cells were excited with an Argon laser at 488 nm, and emission was measured through a 510-570 nm bandwidth emission filter (FLIPR™, Molecular Devices, Sunnyvale, Calif.). […] The peak increase in fluorescence intensity was recorded for each well. On each plate, four wells each served as negative (HBSS-HEPES buffer) and positive controls (standard agonists: BW245C (hDP); PGE2 (hEP1; hEP2/Gqs5; hEP3A/Gqi5; hEP4/Gqs5); PGF2 (hFP); carbacyclin (hIP); U-46619 (hTP), depending on receptor). The peak fluorescence change in each drug-containing well was then expressed relative to the controls.
Compounds were tested in a high-throughput (HTS) or concentration-response (CoRe) format. In the HTS format, forty-four compounds per plate were examined in duplicates at a concentration of 10^−5 M. To generate concentration-response curves, four compounds per plate were tested in duplicates in a concentration range between 10^−5 and 10^−11 M. The duplicate values were averaged.

The target of another assay is hTP (Homo sapiens (Human), UniProt P21731). Briefly: Table 2 top number, hTP (radioligand binding per footnote). The conditions noted are these: top number in Table 2.
In the next assay the target is hEP3D (Homo sapiens (Human), UniProt P43115). Briefly: Radioligand binding ([3H]PGE2), HEK-293 cell membranes expressing EP3 receptor. The conditions noted are these: top number in Table 2. The protocol: as §1, §2, §3
A further assay addresses hEP1 (Homo sapiens (Human), UniProt P34995). Briefly: Radioligand binding ([3H]PGE2), HEK-293 cell membranes expressing EP1 receptor. Particulars: top number in Table 2. The protocol:
as §1, §2, §3

T1 sequence (P35408 whole entry, looked up): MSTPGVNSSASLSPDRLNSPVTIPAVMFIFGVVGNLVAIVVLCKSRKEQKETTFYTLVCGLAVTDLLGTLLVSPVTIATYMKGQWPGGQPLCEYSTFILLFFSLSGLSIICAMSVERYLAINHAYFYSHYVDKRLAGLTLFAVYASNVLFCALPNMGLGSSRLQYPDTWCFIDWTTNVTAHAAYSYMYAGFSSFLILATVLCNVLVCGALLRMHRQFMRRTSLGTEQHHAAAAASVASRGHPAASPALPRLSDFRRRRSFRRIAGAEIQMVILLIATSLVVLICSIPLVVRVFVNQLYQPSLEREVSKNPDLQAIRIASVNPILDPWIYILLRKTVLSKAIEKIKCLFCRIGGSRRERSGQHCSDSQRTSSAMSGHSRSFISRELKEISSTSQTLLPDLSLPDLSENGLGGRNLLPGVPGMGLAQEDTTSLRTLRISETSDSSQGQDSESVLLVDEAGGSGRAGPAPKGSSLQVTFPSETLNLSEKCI
hTP, sequence (P21731 whole entry): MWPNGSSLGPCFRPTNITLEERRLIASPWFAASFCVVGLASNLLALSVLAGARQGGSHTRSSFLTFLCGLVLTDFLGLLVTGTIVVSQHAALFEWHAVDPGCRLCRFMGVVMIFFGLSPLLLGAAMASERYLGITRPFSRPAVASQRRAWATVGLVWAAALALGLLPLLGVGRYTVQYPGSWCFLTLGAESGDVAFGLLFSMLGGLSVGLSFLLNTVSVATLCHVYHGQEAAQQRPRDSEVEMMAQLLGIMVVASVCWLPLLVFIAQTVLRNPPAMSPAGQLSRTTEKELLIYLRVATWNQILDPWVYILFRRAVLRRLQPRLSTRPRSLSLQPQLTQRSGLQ
hEP1, sequence (P34995 whole entry): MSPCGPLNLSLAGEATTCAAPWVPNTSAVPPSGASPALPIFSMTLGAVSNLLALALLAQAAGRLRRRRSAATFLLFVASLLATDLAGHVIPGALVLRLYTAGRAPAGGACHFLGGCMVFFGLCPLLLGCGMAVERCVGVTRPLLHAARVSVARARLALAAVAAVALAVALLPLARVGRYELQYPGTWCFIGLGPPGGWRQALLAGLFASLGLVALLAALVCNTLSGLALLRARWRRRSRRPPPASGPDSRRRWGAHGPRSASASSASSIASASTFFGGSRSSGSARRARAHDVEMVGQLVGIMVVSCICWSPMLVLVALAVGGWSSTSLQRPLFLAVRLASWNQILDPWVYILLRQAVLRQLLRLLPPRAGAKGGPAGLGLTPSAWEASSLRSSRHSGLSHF
hEP3D, sequence (P43115 other isoform, or with tags, fused parts or gaps): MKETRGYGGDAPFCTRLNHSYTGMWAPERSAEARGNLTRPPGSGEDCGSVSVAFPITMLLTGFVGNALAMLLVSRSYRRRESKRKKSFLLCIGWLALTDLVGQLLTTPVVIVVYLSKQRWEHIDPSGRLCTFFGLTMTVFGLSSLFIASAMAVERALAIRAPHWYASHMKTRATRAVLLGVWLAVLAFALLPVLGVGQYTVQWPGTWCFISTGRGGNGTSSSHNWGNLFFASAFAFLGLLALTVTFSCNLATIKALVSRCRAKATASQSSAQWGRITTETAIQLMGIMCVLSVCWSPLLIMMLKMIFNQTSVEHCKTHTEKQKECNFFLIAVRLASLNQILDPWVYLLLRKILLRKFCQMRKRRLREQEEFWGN

For `COC(=O)CSCCCS[C@H]1C(=O)C(C)(C)[C@@H](O)[C@@H]1/C=C/C(O)CCc1sc2ccccc2c1Cl` (single isomer, unassigned) [Compound 22], the IC50 at hEP4 [1] came to 300 nM. For the same molecule, the EC50 on hEP4 [2] came out at 30 nM.

`CC1(C)C(=O)[C@H](SCCCSCC(=O)O)[C@@H](/C=C/C(O)CCc2sc3ccccc3c2Cl)[C@@H]1O` (single isomer, unassigned) [Compound 23] displayed an IC50 on hEP4 [1] of 44 nM. The molecule also displayed a hTP radioligand binding IC50 at hTP of more than 10 µM. Further, at hEP4 [2], the EC50 turned out to be 0.1 nM. The hEP3D radioligand binding IC50 at hEP3D was more than 10 µM.

For `CC1(C)C(=O)[C@H](SCCCSCC(=O)O)[C@@H](/C=C/C(O)CCc2sc3ccccc3c2Cl)[C@@H]1O` (single isomer, unassigned) [Compound 24], at hEP4 [1], the IC50 turned out to be 26 nM. Moreover, the EC50 on hEP4 [2] turned out to be 0.1 nM. The “hEP3D radioligand binding IC50” value at hEP3D is given as >>10K.

As to `COC(=O)CCC/C=C\C[C@H]1C(=O)C(C)(C)[C@@H](O)[C@@H]1/C=C/C(O)CCc1sc2ccccc2c1Cl` (single isomer, unassigned) [Compound 38], the IC50 at hEP4 [1] came out at 2700 nM. Moreover, the concentration giving a half-maximal response (EC50) at hEP4 [2] is 269 nM.

In turn, `COC(=O)CCC/C=C\C[C@H]1C(=O)C(C)(C)[C@@H](O)[C@@H]1/C=C/C(O)CCc1sc2ccccc2c1Cl` (single isomer, unassigned) [Compound 39] returned an IC50 at hEP4 [1] of 2300 nM. Moreover, at hEP4 [2], the EC50 stood at 141 nM.

`CC1(C)C(=O)[C@H](C/C=C\CCCC(=O)O)[C@@H](/C=C/C(O)CCc2sc3ccccc3c2Cl)[C@@H]1O` (single isomer, unassigned) [Compound 40] yielded an IC50 at hEP4 [1] of 200 nM. This molecule also came in with a hTP radioligand binding IC50 on hTP of more than 10 µM. Besides, the EC50 at hEP4 [2] amounted to 0.3 nM.

Consider `CC1(C)C(=O)[C@H](C/C=C\CCCC(=O)O)[C@@H](/C=C/C(O)Cc2ccccc2)[C@@H]1O` (single isomer, unassigned) [Compound 47], for which the IC50 worked out at 76 nM on hEP4 [1] and 963 nM at hEP1. On hEP3D, the hEP3D radioligand binding IC50 was more than 10 µM.

Take `COC(=O)CCC/C=C\C[C@H]1C(=O)C(C)(C)[C@@H](O)[C@@H]1/C=C/C(O)Cc1ccccc1` (single isomer, unassigned) [Compound 48]: the IC50 on hEP4 [1] turned out to be 45 nM.

On hEP4 [1], `COC(=O)CCC/C=C\C[C@H]1C(=O)C(C)(C)[C@@H](O)[C@@H]1/C=C/C(O)Cc1ccccc1` (single isomer, unassigned) [Compound 49] displayed an IC50 of 1400 nM. Against the preceding molecule, the IC50 is about 31-fold higher.

Take `COC(=O)CCC/C=C\C[C@H]1C(=O)C(C)(C)[C@@H](O)[C@@H]1/C=C/C(O)CCc1ccccc1` (single isomer, unassigned) [Compound 51]: the IC50 on hEP4 [1] is 700 nM.

As for `CC1(C)C(=O)[C@H](C/C=C\CCCC(=O)O)[C@@H](/C=C/C(O)CCc2ccccc2)[C@@H]1O` (single isomer, unassigned) [Compound 52], the IC50 on hEP4 [1] amounted to 72 nM; at hEP1, 27 nM; on hEP3D, 60 nM. Further, the EC50 at hEP4 [2] was 18 nM.

With `CC1(C)C(=O)[C@H](C/C=C\CCCC(=O)O)[C@@H](/C=C/C(O)CCc2ccccc2)[C@@H]1O` (single isomer, unassigned) [Compound 53], the IC50 is 59 nM on hEP4 [1], 1020 nM on hEP1 and 1860 nM on hEP3D. For the same molecule, the concentration for a half-maximal effect (EC50) on hEP4 [2] turned out to be 6.4 nM.

For the molecule `CC1(C)C(=O)[C@H](C/C=C\CCCC(=O)O)[C@@H](/C=C/C(O)Cc2cc3ccccc3s2)[C@@H]1O` (single isomer, unassigned) [Compound 54], the figures for the IC50 at hEP4 [1], at hEP1 and on hEP3D were 20 nM, 308 nM and 4700 nM, respectively. Further, at hEP4 [2], the EC50 turned out to be 0.3 nM.

Consider `CC1(C)C(=O)[C@H](C/C=C\CCCC(=O)O)[C@@H](/C=C/C(O)Cc2cc3ccccc3s2)[C@@H]1O` (single isomer, unassigned) [Compound 55], for which the IC50 at hEP4 [1] was found to be 310 nM; at hEP1 it was 758 nM. For the same molecule, the EC50 on hEP4 [2] worked out at 38 nM. The molecule further yielded a hEP3D radioligand binding IC50 on hEP3D of more than 10 µM.

On hEP4 [1], `CCNC(=O)CCC/C=C\C[C@H]1C(=O)C(C)(C)[C@@H](O)[C@@H]1/C=C/C(O)Cc1cc2ccccc2s1` (single isomer, unassigned) [Compound 60] yielded a hEP4 radioligand binding IC50 of more than 10 µM.

In turn, `CCN(CC)C(=O)CCC/C=C\C[C@H]1C(=O)C(C)(C)[C@@H](O)[C@@H]1/C=C/C(O)Cc1cc2ccccc2s1` (single isomer, unassigned) [Compound 62] yielded an IC50 on hEP4 [1] of 832 nM. That is a sub-micromolar value.

`CCN(CC)C(=O)CCC/C=C\C[C@H]1C(=O)C(C)(C)[C@@H](O)[C@@H]1/C=C/C(O)Cc1cc2ccccc2s1` (single isomer, unassigned) [Compound 63] came in with an IC50 on hEP4 [1] of 478 nM. In addition, on hEP1, the hEP1 radioligand binding IC50 is more than 10 µM.

As for `CC1(C)C(=O)[C@H](C/C=C\CCCC(=O)NCCO)[C@@H](/C=C/C(O)Cc2cc3ccccc3s2)[C@@H]1O` (single isomer, unassigned) [Compound 64], the IC50 on hEP4 [1] is 4150 nM.

`CC1(C)C(=O)[C@H](C/C=C\CCCC(N)=O)[C@@H](/C=C/C(O)Cc2cc3ccccc3s2)[C@@H]1O` (single isomer, unassigned) [Compound 68] gave an IC50 on hEP4 [1] of 678 nM. Further, the hTP radioligand binding IC50 on hTP is more than 10 µM.

Consider `CC1(C)C(=O)[C@H](C/C=C\CCCC(N)=O)[C@@H](/C=C/C(O)Cc2cc3ccccc3s2)[C@@H]1O` (single isomer, unassigned) [Compound 69], for which, at hEP4 [1], the IC50 was 5000 nM. The hTP radioligand binding IC50 on hTP was more than 10 µM.

On hEP4 [1], `COC(=O)CCC/C=C\C[C@H]1C(=O)C(C)(C)[C@@H](O)[C@@H]1/C=C/C(O)Cc1cc2ccccc2s1` (single isomer, unassigned) [Compound 70] had an IC50 of 219 nM. The molecule also gave a hEP3D radioligand binding IC50 on hEP3D of more than 10 µM.

In turn, `COC(=O)CCC/C=C\C[C@H]1C(=O)C(C)(C)[C@@H](O)[C@@H]1/C=C/C(O)Cc1cc2ccccc2s1` (single isomer, unassigned) [Compound 71] registered an IC50 at hEP4 [1] of 10000 nM.

`COC(=O)CCCC#CC[C@H]1C(=O)C(C)(C)[C@@H](O)[C@@H]1/C=C/C(O)Cc1cc2ccccc2s1` (single isomer, unassigned) [Compound 72] displayed a hEP4 radioligand binding IC50 on hEP4 [1] of more than 10 µM.

Regarding `CC1(C)C(=O)[C@H](CC#CCCCC(=O)O)[C@@H](/C=C/C(O)Cc2cc3ccccc3s2)[C@@H]1O` (single isomer, unassigned) [Compound 74], the IC50 on hEP4 [1] came to 256 nM; on hEP1, 2380 nM.

At hEP4 [1], `CC1(C)C(=O)[C@H](CC#CCCCC(=O)O)[C@@H](/C=C/C(O)Cc2cc3ccccc3s2)[C@@H]1O` (single isomer, unassigned) [Compound 75] showed a hEP4 radioligand binding IC50 of more than 10 µM. The IC50 at hEP1 is 2050 nM. Also, on hTP, the hTP radioligand binding IC50 was more than 10 µM.
